Test results published in patent US12416052B2, “Capturing, concentrating, and detecting microbes in a sample using magnetic ionic liquids and recombinase polymerase amplification” (priority 2019, dated 2025).

What was measured:
[1] = test system: S. minnesota SLH 157 (wild type, functional OM); assay: MIL-based whole-cell extraction (capture, wash, back-extraction, plating); set-up: species or system Salmonella enterica; key to Relative Affinity for MIL: +++++: higher losses during wash step are due to lower cellular affinity for the MIL; ++++: higher losses during wash step are due to lower cellular affinity for the MIL; +++: higher losses during wash step are due to lower cellular affinity for the MIL; ++: higher losses during wash step are due to lower cellular affinity for the MIL; +: higher losses during wash step are due to lower cellular affinity for the MIL
Description: (§1) A universal schematic for MIL-based cell extraction is depicted in FIG. 7B. A 1 mL volume of diluted cell suspension was added to a flat-bottomed 4-mL screw cap glass vial. Fifteen microliters of either the Ni(II) or Dy(III) MIL was added and dispersed into microdroplets by vortex agitation for 30 s. The aqueous phase was decanted following dispersive extraction, and the MIL was subjected to a brief wash step using 1 mL of nuclease-free water (Integrated DNA Technologies, Coralville, IA, USA) to ensure adequate removal of loosely or incidentally bound cells. After washing, release of viable cells from the MIL extraction phase was carried out using a “back-extraction” step accomplished through addition of 1 mL of an ionically-rich nutritive medium comprised of 20 g L^−1 tryptone and 10 g L^−1 NaCl, followed by a 120 s vortex step. After back-extraction, aliquots of the cell-enriched back-extraction medium were enumerated using the track dilution method using 100×100 mm square, gridded TSA, BSA, CA or VRBGA plates.
(§2) Following back-extraction, aliquots of the cell-enriched back-extraction medium were serially diluted in 0.1% peptone water and a 10 μL aliquot of each dilution was applied to a separate lane on square plates containing an appropriate agar medium. The plates were then tilted at an approximately 80° angle for 15 min to allow the droplets to travel toward the opposite end of the plate. The plates were incubated for 24 h at 37° C. (TSA, VRBGA), for 48 h at 37° C. (BSA) or for 24 h at 37° C. (CA). Colonies were counted and colony forming units (CFU) were determined. The enrichment factor (EF) for MIL-based extraction was calculated using Equation 1, where CMIL represents the concentration of bacteria in suspension following extraction using the MIL and CS is the initial concentration of bacteria in the sample.
(§3) To further evaluate the importance of the OM to serve as a surface to which the MIL can bind and as a protective layer from potentially deleterious activities of the Ni(II) MIL, capture and recovery of two physiological variants of S. minnesota was performed. The strains compared were S. minnesota SLH 157 (wild type, functional OM) and S. minnesota mR613 (OM mutant). […] Compared to the wild type, cells with a truncated OM are dramatically more susceptible to damage from antimicrobial agents or chemically harsh environments. To study the effect of the Ni(II) MIL exposure on the recovery of wild type and mutant strains of S. minnesota, a 1 mL aliquot of TSB was inoculated with 1×10^5 CFU mL^−1 of bacteria and spiked with 15 μL of the Ni(II) MIL. MIL-based extraction was performed and 10 μL aliquots of the back-extraction solution were enumerated using TSA and BSA plates. Average CFU counts were compared to a standard that was not exposed to the Ni(II) MIL. Extraction and recovery of S. typhimurium was also assessed. Enrichment factors were calculated.
(§4) Although all of the strains assessed were capable of being enriched by the MIL, some species were physically enriched to greater extents than others with extraction. In order to further examine the cause for this finding, the number of captured cells lost to the wash solution was investigated. The wash step is performed after the MIL enrichment step in order to remove any incidentally-adsorbed bacteria prior to back-extraction. It is hypothesized that the cells with lower enrichment factors have lower affinities for the MIL and are therefore lost in greater number to the wash solution than those having higher enrichment factors. […] The percent-loss during the wash step ranged from 47-79%. […] EF data from Table 4 for three overlapping Salmonella strains are superimposed to highlight trends in percent-loss, relative affinity and EF.

[2] = test system: S. minnesota mR613 (OM mutant, deep rough); assay: as above; set-up: species or system Salmonella enterica; key to Relative Affinity for MIL: +++++: higher losses during wash step are due to lower cellular affinity for the MIL; ++++: higher losses during wash step are due to lower cellular affinity for the MIL; +++: higher losses during wash step are due to lower cellular affinity for the MIL; ++: higher losses during wash step are due to lower cellular affinity for the MIL; +: higher losses during wash step are due to lower cellular affinity for the MIL; details: for Percent-Loss: cells lost to wash solution
Description: as §1, §2, §3, §4

S. bongori = assay: MIL-based whole-cell extraction; set-up: species or system Salmonella bongori; details: 1×10^6 CFU mL^−1 in TSB, 15 μL MIL
Description: (§5) A universal schematic for MIL-based cell extraction is depicted in FIG. 7B. A 1 mL volume of diluted cell suspension was added to a flat-bottomed 4-mL screw cap glass vial. Fifteen microliters of either the Ni(II) or Dy(III) MIL was added and dispersed into microdroplets by vortex agitation for 30 s. The aqueous phase was decanted following dispersive extraction, and the MIL was subjected to a brief wash step using 1 mL of nuclease-free water (Integrated DNA Technologies, Coralville, IA, USA) to ensure adequate removal of loosely or incidentally bound cells. […]
as §2, with “The plates were then tilted at an approximately 80° angle for 15 min to allow the droplets to travel toward the opposite end of the plate. The plates were incubated for 24 h at 37° C. (TSA, VRBGA), for 48 h at 37° C. (BSA) or for 24 h at 37° C. (CA).” left out
In order to explore the broader utility of our approach, evaluation of additional cell types is needed. […] We later determined that VRBGA was a suitable common medium for this purpose and used this in our statistical analysis. […]

[3] = test system: S. enterica subsp. houtenae; assay: MIL-based whole-cell extraction; set-up: species or system Salmonella enterica; details: 1×10^6 CFU mL^−1 in TSB, 15 μL MIL
Description: as §1, §2
(§6) In order to explore the broader utility of our approach, evaluation of additional cell types is needed. We began this extended evaluation of the Ni(II) MIL with seven representative DNA subgroups of Salmonella and eight strains of E. coli O157:H7. Briefly, a 1 mL aliquot of TSB was inoculated with 1×10^6 CFU mL^−1 of bacteria, and spiked with 15 μL of the Ni(II) MIL. MIL-based extraction was performed and 10 μL aliquots of the back-extraction solution were enumerated using TSA and BSA plates (Salmonella) or TSA plates (E. coli O157:H7). […] We later determined that VRBGA was a suitable common medium for this purpose and used this in our statistical analysis. Average CFU counts were compared to standards that were not exposed to the Ni(II) MIL. Enrichment factors were calculated for Salmonella on both non-selective (TSA) and selective agars (BSA) and for E. coli O157:H7 on non-selective agar (TSA). […] Note: As BSA is a Salmonella-specific agar E. coli O157:H7 was not plated to BSA in this example.

[4] = test system: S. enterica subsp. indica; assay: MIL-based whole-cell extraction; set-up: species or system Salmonella enterica; details: 1×10^6 CFU mL^−1 in TSB, 15 μL MIL
Description: as §1, §2, §6

[5] = test system: S. enterica subsp. salamae; assay: MIL-based whole-cell extraction; set-up: species or system Salmonella enterica; details: 1×10^6 CFU mL^−1 in TSB, 15 μL MIL
Description: as §1, §2, §6

P. eucalypti 299R = assay: MIL-based whole-cell extraction; set-up: species or system Pantoea eucalypti; details: EF determined using Columbia Agar
Description: as §5
as §2, with “The plates were then tilted at an approximately 80° angle for 15 min to allow the droplets to travel toward the opposite end of the plate. The plates were incubated for 24 h at 37° C. (TSA, VRBGA), for 48 h at 37° C. (BSA) or for 24 h at 37° C. (CA).” left out

C. sakazakii 01088P = assay: MIL-based whole-cell extraction; set-up: species or system Cronobacter sakazakii; details: EF determined using Tryptic Soy Agar
Description: as §5
as §2, with “The plates were then tilted at an approximately 80° angle for 15 min to allow the droplets to travel toward the opposite end of the plate. The plates were incubated for 24 h at 37° C. (TSA, VRBGA), for 48 h at 37° C. (BSA) or for 24 h at 37° C. (CA).” left out

Density of MIL = assay type: physicochemical
[6] = 1×10^5 CFU mL^−1 in TSB, 15 μL MIL
[7] = ranked from percent-loss in wash step

**Q.** For CCCCCCCCCCCCCC[P+](CCCCCC)(CCCCCC)CCCCCC.O=C([CH-]C(=O)C(F)(F)F)C(F)(F)F.O=C([CH-]C(=O)C(F)(F)F)C(F)(F)F.O=C([CH-]C(=O)C(F)(F)F)C(F)(F)F.[Ni+2] [Ni(II) MIL, [P66614^+][Ni(hfacac)3^−]], which “Enrichment Factor (BSA)” value [1, 6] is on record?
**A.** 11

**Q.** What about the “Enrichment Factor (TSA)” value [1, 6] of the same molecule?
**A.** 17

**Q.** And the Percent-Loss ([1]; cells lost to wash solution)?
**A.** 59 ± 3%

**Q.** And the “Relative Affinity for MIL” value [1, 7]?
**A.** +++

**Q.** And the “Enrichment Factor (TSA)” value [2, 6]?
**A.** 4

**Q.** And the Percent-Loss [2]?
**A.** 69 ± 5%

**Q.** And the Percent-Loss ([2]; listed as MIL)?
**A.** 79%

**Q.** What about the “antimicrobial effect of capture process on deep rough mutant” value ([2]; post-capture growth behavior on TSA) of the same molecule?
**A.** not overtly antimicrobial

**Q.** What about the “Relative Affinity for MIL” value [2, 7] of the same molecule?
**A.** ++

**Q.** What about the “Enrichment Factor (BSA)” value (S. bongori) of the same molecule?
**A.** 4

**Q.** And the “Enrichment Factor (TSA)” value (S. bongori)?
**A.** 4

**Q.** What about the “Enrichment Factor (BSA)” value [3] of the same molecule?
**A.** 8

**Q.** And the “Enrichment Factor (TSA)” value [3]?
**A.** 8

**Q.** What about the “Enrichment Factor (BSA)” value [4] of the same molecule?
**A.** 4

**Q.** What about the “Enrichment Factor (TSA)” value [4] of the same molecule?
**A.** 3

**Q.** What about the “Enrichment Factor (BSA)” value [5] of the same molecule?
**A.** 9

**Q.** And the “Enrichment Factor (TSA)” value [5]?
**A.** 12

**Q.** What about the “Enrichment Factor” value (P. eucalypti 299R) of the same molecule?
**A.** 169

**Q.** What about the “Enrichment Factor” value (C. sakazakii 01088P) of the same molecule?
**A.** 12

**Q.** And the density (Density of MIL)?
**A.** ~1.3 g/mL
